Assay results reported in patent US8580730B2, “Methods of treating lesional vestibular disorders by administering serotonin 5-HT3 receptor antagonists” ((INSERM) Institut National de la Sante et de la Recherche …, priority 2009, dated 2013).
“Also recorded” adds a separate entry of the source.

Key:
[1] = test system: patients with suspicion of vestibular neuritis; assay: Clinical study of vestibular deficit following acute vestibular neuritis (VNG, hospitalization, first walk); format: in vivo, human; conditions: 5 days treatment, ondansetron 8 mg/d vs metoclopramide 30 mg/d, n=10 each; for vestibular deficit, VNG at 1 month / vestibular deficit, early VNG (caloric tests): with methylprednisolone and valacyclovir; for vestibular deficit, VNG at 1 month: p=0.07; for vestibular deficit, early VNG (caloric tests): VNG 24 to 48 hours after beginning of deficit; for vestibular deficit, early VNG (caloric tests) / hospitalization duration: p=0.03; for time of first walk: p=0.001
Description: Methods: A clinical study conducted by the inventors at the Centre Hospitalier Universitaire (CHU) of Montpellier was carried out. Random clinical tests were performed on 20 patients. Patients were selected on the suspicion of vestibular neuritis started for less than 24 h before the hospitalization. The patients were all administered with methylprednisolone and valacyclovir, and either a 5 days treatment with Metoclopramide (30 mg/d, n=10) or with Ondansetron (8 mg/d, n=10). The functional evaluation was based on a early VNG (vestibulonystagmography) test (realized 24 to 48 hours after the beginning of the vestibular deficit) and a VNG at 1 month. The hospitalization duration and the date of the first walk were also recorded.

[2] = test system: hair cells and synaptic terminals of vestibular sensory epithelia (utricles); assay: Histological and morphometric evaluation of kainate-induced vestibular lesions; format: in vivo, rat; conditions: 4 mg/kg ip 1 h after KA
Description: 1 h after KA injection, vestibular behavior of the animals was tested followed by ondansetron injection in the treatment group. […] Subsequently, the animals were tested at 2 h, 6 h, 24 h and 48 h after KA injection. Histological and morphometric analysis were performed at 2 and 24 hours after KA injection in the presence and absence of ondansetron treatment.
Preparation of semi-thin sections of sensory epithelia. We anesthetized female adult rats (Wistar; 200-220 g; n=3 for each treatment) with pentobarbital (0.4%). Animals were perfused transcardially with heparin PBS (0.01M) followed by a fixative solution (2% paraformaldehyde, 2.5% glutaraldehyde 1% picric acid, 5% sucrose) and samples post-fixed. […] Whole vestibular organs were postfixed in 2% OsO4, dehydrated, embedded in Araldite, and 1 μm thick sections were cut. A Nanozoomer Slide Scanner (RIO imaging, Montpellier, France) allowed the observation and scanning of samples mounted on slides.
Scans of semi-thin sections acquired with the Nanozoomer Slide Scanner were analyzed. Quantification of hair cells in utricles was done with Metamorph software (Universal Imaging). For each lesioned and contralateral ear, 3 sections distant of 20 to 25 μm each were analyzed. Thus, 400 cells for each epithelium were counted for each treatment on 3 different animals with the contralateral ear as pooled control. […] ANOVA was used to search for statistical difference, followed by Tukey Test to compare between treatments.

[3] = test system: IDPN-induced bilateral vestibular deficit; assay: Behavioral evaluation of bilateral (nitrile, IDPN)-induced vestibular deficit; format: in vivo, rat
Source text: Vestibular rating score was estimated as previously described (Brugeaud et al., 2007; Boadas-Vaello et al. 2005). Animals were scored from range 0 to 4, respectively corresponding to normal behavior to maximal vestibular deficit. Rating 1 means that the behavior is not normal but no specific vestibular deficit is effectively determined; rating 2 corresponds to an identified but slight vestibular deficit and, rating 3 describes an identified and evident deficit. Six different tests were sequentially scored and totalized to rate the vestibular deficit: 1—the head bobbing, when abnormal intermittent backward extension of the neck was observed; 2—the circling stereotyped movement ranging from none to compulsive circles around the animal hips; 3—the retro-pulsion, a typical backward walk reflecting vestibular disturbance; 4—the tail-hanging reflex, that normally induces a normal forelimb extension to reach the ground, results in the ventral bent of the body and grip of the tail when the vestibular deficit is maximal; 5—the contact-inhibition reflex normally leads animal hold to a metal grid in a subpine position to return when their back touch the ground; in case of vestibular deficit with a lack in the body orientation referential, this reflex is abolished, the animal stays griped to the grid in a supine position; 6—the air-righting reflex is necessary for animals to land on their feet when they fall from a supine position; vestibular dysfunction impairs this normal reversal, a maximal deficit leads the animal to land on its back when dropped from a height of 40 cm onto a foam cushion. Vestibular rating scores were expressed for each time point as a percentage of the t0 score.
Validation of the restorative effect of said serotonin 5-HT3 antagonist is also assessed on animal model of bilateral vestibular deficit by analysing the time course of arrival and removal of both excitotoxic lesions and ensuing vestibular deficit following intoxication with nitriles (IP injection—Seoane et al., J. Comp. Neurol. 2001, 439:385-399). […] Protection is assessed by administration of said serotonin 5-HT3 antagonist following different schedules (at the start of chronic intoxication; 24 and 48 h after).
IDPN (1 g/kg; ip) induces bilateral and permanent vestibular damage through destruction of the vestibular sensory epithelium. […] We assessed the effect of IDPN injection using behavioral testing of vestibular deficits. We evaluated the protective effect of single or double injections of ondansetron throughout the time course of injury progression following IDPN injection to determine the vestibuloprotective potential of ondansetron. […]

[4] = test system: kainate-induced unilateral vestibular deficit; assay: Behavioral evaluation of excitotoxically (kainate)-induced unilateral vestibular deficit; format: in vivo, rat; conditions: 4 mg/kg ip 1 h after transtympanic KA injection; 24 h after KA; vs untreated; p=0.022 Mann Whitney
Description: Validation of the restorative effect of said serotonin 5-HT3 antagonist is assessed by analysing the time course of arrival and removal of both excitotoxic lesions and ensuing vestibular deficit that occur within vestibular endorgans during intra auricular application of glutamate agonists. In the vestibular endorgans, massive application of kainic acid induces excitotoxic impairments of the neuronal network in the sensory organs (swelling of terminals that contact hair cells-Brugeaud et al., 2007). Histological studies of the expansion and reduction of excitotoxic lesions are undertaken using light and electron microscopy. Behavioural evaluation of vestibular deficit is undertaken using specific behavioural tests of the vestibular function. Under the paradigm developed in the rat, transtympanic application of kainic acid allows its diffusion into the inner ear. […] We evaluate the effect of KA injection using behavioral testing of vestibular deficits and histological quantification of the induced lesion. […] Animals were scored from range 0 to 4, respectively corresponding to normal behavior to maximal vestibular deficit. Rating 1 means that the behavior is not normal but no specific vestibular deficit is effectively determined; rating 2 corresponds to an identified but slight vestibular deficit and, rating 3 describes an identified and evident deficit. […]

[5] = Stability of solution comprising ondansetron base; format: physicochemical; conditions: 1 month storage
Description: Chemical stability of the solution was also assessed: […]

| SMILES | vestibular deficit, VNG at 1 month [1] | vestibular deficit, VNG at 1 month ([1]; listed as M) [%] | vestibular deficit, early VNG (caloric tests) [1] | vestibular deficit, early VNG (caloric tests) ([1]; listed as metoclopramid) | time of first walk [1] [days] | hospitalization duration [1] [days] | number of not-determined hair cells ([2]; 24 hrs after the KA lesion, P<0.01) | number of type I hair cells ([2]; 24 hrs after the KA lesion, p<0.01) | maturation of neo-formed synaptic terminals (photonic microscopy) ([2]; 24 hrs after the lesion) | time course of increasing vestibular deficits ([3]; 1 dose 4 mg/kg ip 24 h after IDPN injection) | time course of increasing vestibular deficits ([3]; 1 dose 4 mg/kg ip 48 h after IDPN injection) | time course of increasing vestibular deficits ([3]; 1 dose 4 mg/kg ip simultaneously with IDPN 1 g/kg ip) | time course of increasing vestibular deficit / vestibular deficits at 54 h ([3]; 2 doses 4 mg/kg ip 24 and 48 hours after IDPN injection, at 54 h, 4 mg/kg) | vestibular deficits (vestibular rating score) at 24 hours [4] | vestibular deficit, VNG at 1 month ([1]; listed as O) [%] | chemical degradation with pH modification [5] |
| --- | --- | --- | --- | --- | --- | --- | --- | --- | --- | --- | --- | --- | --- | --- | --- | --- |
| CCN(CC)CCNC(=O)c1cc(Cl)c(N)cc1OC [Metoclopramide] | 63,4% | 63.4 | 84.38% | 84,38% | 2.25 | 4.5 | – | – | – | – | – | – | – | – | – | – |
| Cc1nccn1CC1CCc2c(c3ccccc3n2C)C1=O (centres unmarked) [Ondansetron, 1,2,3,9-tetrahydro-9-methyl-3-[(2-methyl-1H-imidazol-1-yl)methyl]-4H-carbazol-4-one] | 43,0% | – | 56,53% | – | 1.25 | 2.88 | significantly reduced | significantly increased | seemed to potentiate | not significantly altered | not significantly altered | not significantly altered | significant modification; also recorded: significantly less severe | significantly reduced | 43 | not associated to significant chemical degradation |
